# Reference: patent US12624127B2, “Chitosan derivatives as antimicrobials and synergistic combinations thereof” (priority 2022, dated 2026)
# Experiments:
# MDR A. baumannii (AB-1) = experiment: Neutropenic lung infection model in BALB/c mice; assay type: in vivo, Acinetobacter baumannii; settings: rifampicin 10 mg/kg alone, 24 h
# Method: Bacterial cultures of MDR . baumannii (AB-1) were prepared and used to infect 8-week-old female BALB/c mice. 10^8 CFU/mL of AB-1 (30 μL) was inhaled by the mouse to introduce the infection via the intranasal route. After 2 h of infection, a specific dosage of antibiotic (novobiocin or rifampicin, 10 mg/kg), 2,6-DAC (25 mg/kg) or the combination of antibiotic (novobiocin or rifampicin, 10 mg/kg) and 2,6-DAC (25 mg/kg) were administrated through the intranasal route for 2,6-DAC and through the intraperitoneal route for antibiotic. Mice euthanasian at indicated time points (24 h) was achieved by CO2 asphyxiation followed by cervical dislocation. For histopathological analysis, the lung was fixed in 10% neutral buffered formalin and embedded in paraffin. The paraffin-embedded sections were stained with H&E. The lung was recovered and counted for bacteria concentration.
# [1] = system: rabbit erythrocyte suspension; experiment: Hemolytic activity test; assay type: cell-based; settings: 78 μg/mL, 1 h
# Method: Fresh rabbit blood (5 mL) was washed three times with sterilized PBS and diluted to a final concentration of 5% v/v. A series concentration of 2,6-DAC and Gramicidin control were incubated with the prepared erythrocyte suspension for 1 h with shaking in a 96-well plate. The supernatant (80 μL) was aliquoted to a new plate after centrifugation at 1000 g for 10 min. The absorbance at 540 nm was recorded by the TECAN microplate reader. 0.1% Triton X-100 that can lyse red blood cells completely was used as the positive control (Op), and PBS was used as the negative control (On). The percentage of hemolysis was determined by the following equation: Hemolysis%=[(Ox−On)/(Op−On)]×100% Results and Discussion
# [2] = set-up: species or system mice; settings: mouse, in vivo, ip, 25 mg/kg
# Method: The biomarkers were determined before treatment (Day 0), and Day 1 and Day 7 after administration. The biomarkers of Day 0 were the untreated controls. The animal experiments were carried out in accordance to the Code of Practice for the Institutional Care and Use of Animals for Scientific Purposes and were approved by the Ethics Committee of Ningbo University.
# 3T3 cells = system: 3T3 cells
# Method: In a 96-well plate, 3T3 cells were co-cultured for 24 h at 37° C. with polymer (100 μg/mL or 200 μg/mL) at initial cell density of 1×10^5 cells per well. At the end of the incubation period, the culture medium was removed, each well was washed with PBS followed by the addition of MTT solution, and the plate was incubated for 4 h at 37° C. The MTT medium was then removed, 100 μL of DMSO was added to each well, the plate was shaken at 100 rpm for 15 min and the absorbance at 570 nm was measured with plate reader (BIO-RAD Benchmark Plus, US).
compound,measurement,setting,value
CO[C@H]1/C=C/O[C@@]2(C)Oc3c(C)c(O)c4c(O)c(c(/C=N/N5CCN(C)CC5)c(O)c4c3C2=O)NC(=O)/C(C)=C\C=C\[C@H](C)[C@H](O)[C@@H](C)[C@@H](O)[C@@H](C)[C@H](OC(C)=O)[C@@H]1C [Rifampicin],"Reduction of lung bacteria, single agent",MDR A. baumannii (AB-1),around 1.6 log10
Gramicidin,Hemolysis,[1],100%
"2,6-Diamino Chitosan [Compound 5a]",Change in biomarkers of kidney and liver functions (in words),[2],did not cause a significant change
same,Biocompatibility (in words),3T3 cells,good biocompatibility
